Laboratory results taken from article PMC8151276, “An Integrated Approach toward NanoBRET Tracers for Analysis of GPCR Ligand Engagement” (Molecules, 2021).

Tests used:
ADORA1 = target: T1, ADORA1 (Homo sapiens, UniProt P30542); assay: NanoBRET screen HiBiT-ADORA1 in HEK293; assay type: binding
T1 construct: purchased Promega (in-house HiBiT-GPCR construct library, NanoBRET)
T1 sequence (P30542 1-326): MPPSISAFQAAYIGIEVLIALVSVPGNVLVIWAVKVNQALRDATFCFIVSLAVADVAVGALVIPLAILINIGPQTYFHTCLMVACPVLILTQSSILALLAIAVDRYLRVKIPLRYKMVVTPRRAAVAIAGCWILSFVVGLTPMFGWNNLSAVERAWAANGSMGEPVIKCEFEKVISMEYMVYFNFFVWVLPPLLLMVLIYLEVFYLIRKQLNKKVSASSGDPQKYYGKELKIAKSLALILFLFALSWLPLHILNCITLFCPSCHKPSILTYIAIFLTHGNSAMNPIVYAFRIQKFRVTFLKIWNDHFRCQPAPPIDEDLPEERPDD
Experimental: (§1) Each tracer candidate was screened across the entire library of HiBiT-GPCR constructs using NanoBRET as the detection modality. As depicted in Figure 4A, the specificity of interactions was evaluated through decrease in BRET due to competitive displacement of a bound tracer by excess parental compound. Each tracer was analyzed for binding to each HiBiT-GPCR fusion in the absence and in the presence of competing parental compound. Briefly, HEK293 cells were transfected with HiBiT-GPCR constructs diluted into promoterless DNA to reduce expression and maximize translocation to the cell surface. Each tracer candidate was then screened at concentrations of 1 μM and 0.1 μM across cells expressing these fusions. Cells were treated for 1.5 h with tracer either alone or in the presence of 20 μM competing parental compound (i.e., control). BRET was measured upon addition of purified LgBiT and subsequent complementation with HiBiT genetically fused to a GPCR. The specificity of interactions was assessed through a decrease in BRET signal due to competitive displacement of the bound tracer. To further gauge the robustness of these interactions, the fold response over the control (i.e., BRETtracer/BRETcontrol) was calculated. We chose a 1.5-fold response, which translates to ≥7-fold signal over noise as the minimal threshold required to score an interaction as positive. […]. Below we highlight the screening results obtained for our exemplary fluorescent tracers based on Clozapine, Amitriptyline and AZD1283.
(§2) HiBiT-GPCR DNA constructs were diluted in 10 mM Tris pH 8 to a final concentration of 0.01 μg/μL, arrayed in 96-well plates and stored at −20 °C. For transfection, HEK293 cells were suspended in Opti-MEM (without phenol red) supplemented with 2% fetal bovine serum (Seradigm) and 100 units/mL penicillin–streptomycin (Gibco) at a final concentration of 220,000 cells/mL and dispensed into white 96-well plates at 90 μL/well. Subsequent transfections and screens were carried using an Agilent Bravo Automated Liquid Handling Platform. First, the 96-well HiBiT DNA arrays were diluted 25-fold in Opti-MEM (without serum or phenol red) to a final concentration of 0.0004 μg/μL and 20 μL of the diluted DNAs were transferred into new 96-well plates. Next, promoterless carrier DNA (1 μg/μL) was diluted 25-fold (0.04 μg/μL) and then dispensed into the diluted arrays at 20 μL/well. Following brief mixing, Viafect transfection reagent (Promega) diluted 16-fold into Opti-MEM was dispensed into the plates at 40 μL/well. After mixing by pipetting, plates were incubated for 10 min on the pipetting station deck. The DNA-transfection reagent complexes were then added to plates containing cells. To facilitate the screen, 10 μL of DNA-transfection reagent complexes were added in duplicates to the top 4 and bottom 4 rows, resulting in two identical 48-well arrays per plate. Plates with transfected cells were incubated for 18–20 h at 37 °C/5% CO2. A screen of each tracer across the entire library using two different concentrations requires duplicate plates of transfected cells. Depending on the number of tracers being screened, transfections can be scaled up using the same ratios. The next day, for each tracer, four 20× screening solutions in tracer dilution buffer (Promega) were prepared: two duplicates at final concentration of 20 μM and two duplicates at a final concentration of 2 μM. A competing unmodified compound was added to one of each duplicate at a final concentration of 400 μM. The four resulting solutions were diluted 4-fold in Opti-MEM without serum or phenol red to generate 5× solutions (5 µM and 0.5 µM tracer +/− 100 μM competing compound). To screen the library, a BioTek MultiFlo FX liquid dispenser was used to dispense 22.5 µL of tracer solution to the top 4 rows and 22.5 µL tracer + competing compound solution to the 4 bottom rows. Plates were briefly mixed on an orbital shaker and incubated for 1.5 h at room temperature. […]

AGTR1 = target: T2, AGTR1 (Homo sapiens, UniProt P30556); assay: NanoBRET screen HiBiT-AGTR1 in HEK293; assay type: binding
T2 construct: purchased Promega (in-house HiBiT-GPCR construct library, NanoBRET)
T2 sequence (P30556 1-359): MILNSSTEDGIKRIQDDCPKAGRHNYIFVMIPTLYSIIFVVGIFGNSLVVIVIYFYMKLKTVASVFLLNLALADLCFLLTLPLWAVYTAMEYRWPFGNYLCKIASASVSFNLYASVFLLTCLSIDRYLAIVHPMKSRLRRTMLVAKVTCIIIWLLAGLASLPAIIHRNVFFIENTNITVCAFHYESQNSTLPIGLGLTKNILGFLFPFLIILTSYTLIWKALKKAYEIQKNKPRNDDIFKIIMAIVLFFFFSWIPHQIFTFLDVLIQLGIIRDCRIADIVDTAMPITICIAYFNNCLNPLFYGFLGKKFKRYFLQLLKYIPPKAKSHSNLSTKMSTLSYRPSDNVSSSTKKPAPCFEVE
Experimental: as §1, §2

[1] = tracer at 1μM, listed as amitriptyline-b-2-NB590

CCOC(=O)c1cc(C#N)c(N2CCC(C(=O)NS(=O)(=O)Cc3ccccc3/C=C/C(=O)NCCNC(=O)CCc3ccc4n3[B-](F)(F)[N+]3=C(c5ccc[nH]5)C=CC3=C4)CC2)nc1C [AZD1283-1-NB590]
NanoBRET Fold Response (ADORA1; ADORA1, 0.1μM): 1.18
NanoBRET Fold Response (ADORA1; ADORA1, 1μM): 1.07
NanoBRET Fold Response (AGTR1; AGTR1, 0.1μM): 1.01
NanoBRET Fold Response (AGTR1; AGTR1, 1μM): 1.05

N#CN=C(NCCCOc1cccc(CN2CCCCC2)c1)NCCNC(=O)CCOCCOCCOCCOCCNC(=O)CCc1ccc2n1[B-](F)(F)[N+]1=C(c3ccc[nH]3)C=CC1=C2 [Aminopotentidine-2-NB590]
NanoBRET Fold Response (ADORA1; ADORA1, tracer 0.1μM): 1.04
NanoBRET Fold Response (ADORA1; ADORA1, tracer 1μM): 1.01
NanoBRET Fold Response (AGTR1; AGTR1, tracer 0.1μM): 1.00
NanoBRET Fold Response (AGTR1; AGTR1, tracer 1μM): 0.96

CN(C)CCC=C1c2ccccc2CCc2ccc(C(=O)NCCNC(=O)CCOCCOCCOCCOCCNC(=O)CCc3ccc4n3[B-](F)(F)[N+]3=C(c5ccc[nH]5)C=CC3=C4)cc21 [Amitriptyline-a-2-NB590]
NanoBRET Fold Response (ADORA1; tracer at 0.1μM): 1.11
NanoBRET Fold Response (ADORA1; tracer at 1μM): 1.02
NanoBRET Fold Response (AGTR1; tracer at 0.1μM): 1.04
NanoBRET Fold Response (AGTR1; tracer at 1μM): 1.00

CN(C)CCC=C1c2ccccc2CCc2ccc(C(=O)NCCNC(=O)CCOCCOCCOCCOCCNC(=O)CCc3ccc4n3[B-](F)(F)[N+]3=C(c5ccc[nH]5)C=CC3=C4)cc21 [Amitriptyline-b-2-NB590]
NanoBRET Fold Response (ADORA1; [1]): 1.01
NanoBRET Fold Response (AGTR1; tracer at 0.1μM, listed as amitriptyline-b-2-NB590): 1.12
NanoBRET Fold Response (AGTR1; [1]): 0.81

CN(CCC=C1c2ccccc2CCc2ccccc21)C(=O)CCOCCOCCOCCOCCNC(=O)CCc1ccc2n1[B-](F)(F)[N+]1=C(c3ccc[nH]3)C=CC1=C2 [Amitriptyline-e-2-NB590]
NanoBRET Fold Response (ADORA1; tracer at 1μM): 1.08
NanoBRET Fold Response (AGTR1; tracer at 1μM): 1.02

COc1ccc2c(n1)c(CCNC(C)=O)cn2CCNC(=O)CCc1ccc2n1[B-](F)(F)[N+]1=C(c3ccc[nH]3)C=CC1=C2 [Azamelatonin-1-NB590]
NanoBRET Fold Response (ADORA1; 0.1μM tracer): 0.87
NanoBRET Fold Response (ADORA1; 1μM tracer): 0.95
NanoBRET Fold Response (AGTR1; 0.1μM tracer): 0.78
NanoBRET Fold Response (AGTR1; 1μM tracer): 1.07

COc1ccc2[nH]c(-c3ccc(CNC(=O)CCOCCOCCOCCOCCNC(=O)CCc4ccc5n4[B-](F)(F)[N+]4=C(c6ccc[nH]6)C=CC4=C5)cc3)c(CCNC(C)=O)c2n1 [AzomelatoninICO9-2-NB590]
NanoBRET Fold Response (ADORA1; 0.1μM tracer): 0.91
NanoBRET Fold Response (ADORA1; 1μM tracer): 0.94
NanoBRET Fold Response (AGTR1; 0.1μM tracer): 0.91
NanoBRET Fold Response (AGTR1; 1μM tracer): 0.94

O=C(CCOCCOCCOCCOCCNC(=O)CCc1ccc2n1[B-](F)(F)[N+]1=C(c3ccc[nH]3)C=CC1=C2)NCCCN1CCN(C2=Nc3cc(Cl)ccc3Nc3ccccc32)CC1 [Clozapine-a-2-NB590]
NanoBRET Fold Response (ADORA1; ADORA1, 0.1μM tracer): 1.00
NanoBRET Fold Response (ADORA1; ADORA1, 1μM tracer): 1.01
NanoBRET Fold Response (AGTR1; AGTR1, 0.1μM tracer): 0.96
NanoBRET Fold Response (AGTR1; AGTR1, 1μM tracer): 1.05

CN1CCN(C2=Nc3cc(Cl)ccc3Nc3ccc(CNC(=O)CCOCCOCCOCCOCCNC(=O)CCc4ccc5n4[B-](F)(F)[N+]4=C(c6ccc[nH]6)C=CC4=C5)cc32)CC1 [Clozapine-b-2-NB590]
NanoBRET Fold Response (ADORA1; ADORA1, 0.1μM tracer): 0.99
NanoBRET Fold Response (ADORA1; ADORA1, 1μM tracer): 0.97
NanoBRET Fold Response (AGTR1; AGTR1, 0.1μM tracer): 1.01
NanoBRET Fold Response (AGTR1; AGTR1, 1μM tracer): 1.06
